Experiments:
Format in all cases: physicochemical
[1] = Storage stability at different relative humidities and temperatures, 6 months (XRPD)
Method: (§1) X-ray diffraction was performed on X-Ray powder diffractometer: • Bruker D8 Advance; CuKα radiation (λ=1.5418 Å); Lynx eye detector; laboratory temperature 22-25° C.; PMMA specimen holder ring with silicon low background. Prior to analysis, the samples were gently ground by means of mortar and pestle in order to obtain a fine powder. The ground sample was adjusted into a cavity of the sample holder and the surface of the sample was smoothed by means of a cover glass. Measurement Parameters: • Scan range: 2-40 degrees 2-theta; • Scan mode: continuous; • Step size: 0.05 degrees; • Time per step: 0.5 s; • Sample spin: 30 rpm; • Sample holder: PMMA specimen holder ring with silicon low background.
Samples of Ensifentrine ethane-1,2-disulfonate form ES2 were subjected to conditions of different relative humidities at different temperatures. XRPD analysis was performed on the samples after 6 months.

[2] = Grinding experiments (strong grinding, solvent drop grinding; XRPD); conditions: for XRPD analysis results: 2 minutes
Method: as §1
Samples of Ensifentrine ethane-1,2-disulfonate form ES2 were subjected to strong grinding, and to solvent drop grinding in water and ethanol. Grinding was carried out on the samples alone, or in the presence of ethanol or water. In these experiments, about 20 mg of the sample is placed in a mortar and ground with a pestle for 2 minutes. The solvent, when used, as added to the crystalline material before grinding, in a volume of 10 microlitres. XRPD analysis performed on each of the samples after the grinding experiment, confirmed no change in the starting material (Table 3): […]

[3] = Thermal stability (heating, XRPD); conditions: heating up to 100° C. for 30 minutes
Method: as §1
XRPD analysis of the sample confirmed no change in the starting material (Table 4): […]

Ensifentrine ethane-1,2-disulfonate
No change: XRPD analysis results ([1]; 25° C., 60% RH) | XRPD analysis results ([1]; 40° C., 75% RH) | XRPD analysis results ([2]; Solvent-drop grinding (ethanol), 10 microlitres) | XRPD analysis results ([2]; Solvent-drop grinding (water), 10 microlitres) | XRPD analysis results ([2]; Strong grinding, about 20 mg, mortar and pestle)
no change: XRPD analysis after the grinding experiment ([2]; each of the samples: alone, with ethanol, with water) | XRPD analysis after heating [3]

Source: patent US12692265B2, “Solid state forms of Ensifentrine and process for preparation thereof” (ASSIA CHEMICAL INDUSTRIES LTD., priority 2021, dated 2026)
